Experiment: Stability of Form 2 in an airtight glass bottle for up to 24 months under various storage conditions
Format: physicochemical
Set-up: key to Appearance: A1: White or almost white powder; key to Identification: I1: Spectrum of test sample identical to spectrum of reference sample; I3: Spectrum of test sample identical to spectrum of reference sample stored at −18° C
Description: Stability of 4-[(7-methoxy-2,3-dihydro-1,4-benzothiazepin-4(5H)yl)methyl]benzoic acid hemifumarate Form 2 was evaluated for up to 24 months under various conditions.

COc1ccc2c(c1)CN(Cc1ccc(C(=O)O)cc1)CCS2.O=C(O)/C=C/C(=O)O [Form 2, 4-[(7-methoxy-2,3-dihydro-1,4-benzothiazepin-4(5H)yl)methyl]benzoic acid, hemifumarate]
Appearance (25° C./60% RH, 1 Y): A1
Assay of Drug substance (LC) (25° C./60% RH, 1 Y): 99.8%
Identification (25° C./60% RH, 1 Y): I3
Related substances content (LC) Sum of impurities (25° C./60% RH, 1 Y): ≤0.05%
Water content (25° C./60% RH, 1 Y): <0.1%
Appearance (25° C./60% RH, 2 Y): A1
Assay by potentiometry (25° C./60% RH, 2 Y): 99.6%
Assay of Drug substance (LC) (25° C./60% RH, 2 Y): 99.5%
Identification (25° C./60% RH, 2 Y): I3
Related substances content (LC) Sum of impurities (25° C./60% RH, 2 Y): ≤0.05%
Water content (25° C./60% RH, 2 Y): <0.1%
Appearance (25° C./60% RH, 3 M): A1
Assay by potentiometry (25° C./60% RH, 3 M): 100.0%
Assay of Drug substance (LC) (25° C./60% RH, 3 M): 99.6%
Identification (25° C./60% RH, 3 M): I3
Related substances content (LC) Sum of impurities (25° C./60% RH, 3 M): ≤0.05%
Water content (25° C./60% RH, 3 M): 0.1%
Appearance (25° C./60% RH, 6 M): A1
Assay by potentiometry (25° C./60% RH, 6 M): 102.1%
Assay of Drug substance (LC) (25° C./60% RH, 6 M): 99.7%
Identification (25° C./60% RH, 6 M): I3
Related substances content (LC) Sum of impurities (25° C./60% RH, 6 M): ≤0.05%
Water content (25° C./60% RH, 6 M): 0.1%
Appearance (25° C./60% RH, 6 W): A1
Assay by potentiometry (25° C./60% RH, 6 W): 99.7%
Assay of Drug substance (LC) (25° C./60% RH, 6 W): 102.5%
Identification (25° C./60% RH, 6 W): I3
Related substances content (LC) Sum of impurities (25° C./60% RH, 6 W): ≤0.05%
Water content (25° C./60% RH, 6 W): <0.1%
Appearance (25° C./60% RH, 9 M): A1
Assay by potentiometry (25° C./60% RH, 9 M): 99.1%
Assay of Drug substance (LC) (25° C./60% RH, 9 M): 100.6%
Identification (25° C./60% RH, 9 M): I3
Related substances content (LC) Sum of impurities (25° C./60% RH, 9 M): ≤0.05%
Water content (25° C./60% RH, 9 M): <0.1%
Appearance (25° C./60% RH, 18 M): A1
Assay by potentiometry (25° C./60% RH, 18 M): 99.8%
Assay of Drug substance (LC) (25° C./60% RH, 18 M): 100.9%
Identification (25° C./60% RH, 18 M): I3
Related substances content (LC) Sum of impurities (25° C./60% RH, 18 M): ≤0.05%
Water content (25° C./60% RH, 18 M): 0.1%
Appearance (25° C./60% RH, T0): A1
Assay by potentiometry (25° C./60% RH, T0): 99.9%
Assay of Drug substance (LC) (25° C./60% RH, T0): 99.7%
Identification (25° C./60% RH, T0): I1
Related substances content (LC) Sum of impurities (25° C./60% RH, T0): ≤0.05%
Water content (25° C./60% RH, T0): 0.1%
Appearance (30° C./65% RH, 1 Y): A1
Assay of Drug substance (LC) (30° C./65% RH, 1 Y): 99.5%
Identification (30° C./65% RH, 1 Y): I3
Related substances content (LC) Sum of impurities (30° C./65% RH, 1 Y): ≤0.05%
Water content (30° C./65% RH, 1 Y): <0.1%
Appearance (30° C./65% RH, 3 M): A1
Assay by potentiometry (30° C./65% RH, 3 M): 99.8%
Assay of Drug substance (LC) (30° C./65% RH, 3 M): 99.7%
Identification (30° C./65% RH, 3 M): I3
Related substances content (LC) Sum of impurities (30° C./65% RH, 3 M): ≤0.05%
Water content (30° C./65% RH, 3 M): 0.1%
Appearance (30° C./65% RH, 6 M): A1
Assay by potentiometry (30° C./65% RH, 6 M): 100.4%
Assay of Drug substance (LC) (30° C./65% RH, 6 M): 100.2%
Identification (30° C./65% RH, 6 M): I3
Related substances content (LC) Sum of impurities (30° C./65% RH, 6 M): ≤0.05%
Water content (30° C./65% RH, 6 M): 0.1%
Appearance (30° C./65% RH, 6 W): A1
Assay by potentiometry (30° C./65% RH, 6 W): 99.8%
Assay of Drug substance (LC) (30° C./65% RH, 6 W): 102.4%
Identification (30° C./65% RH, 6 W): I3
Related substances content (LC) Sum of impurities (30° C./65% RH, 6 W): ≤0.05%
Water content (30° C./65% RH, 6 W): <0.1%
Appearance (30° C./65% RH, 9 M): A1
Assay by potentiometry (30° C./65% RH, 9 M): 99.6%
Assay of Drug substance (LC) (30° C./65% RH, 9 M): 99.7%
Identification (30° C./65% RH, 9 M): I3
Related substances content (LC) Sum of impurities (30° C./65% RH, 9 M): ≤0.05%
Water content (30° C./65% RH, 9 M): <0.1%
Appearance (30° C./65% RH, T0): A1
Assay by potentiometry (30° C./65% RH, T0): 99.9%
Assay of Drug substance (LC) (30° C./65% RH, T0): 99.7%
Identification (30° C./65% RH, T0): I1
Related substances content (LC) Sum of impurities (30° C./65% RH, T0): ≤0.05%
Water content (30° C./65% RH, T0): 0.1%
Appearance (40° C./75% RH, 3 M): A1
Assay by potentiometry (40° C./75% RH, 3 M): 99.8%
Assay of Drug substance (LC) (40° C./75% RH, 3 M): 99.5%
Identification (40° C./75% RH, 3 M): I3
Related substances content (LC) Sum of impurities (40° C./75% RH, 3 M): ≤0.05%
Water content (40° C./75% RH, 3 M): 0.1%
Appearance (40° C./75% RH, 6 M): A1
Assay by potentiometry (40° C./75% RH, 6 M): 100.5%
Assay of Drug substance (LC) (40° C./75% RH, 6 M): 99.2%
Identification (40° C./75% RH, 6 M): I3
Related substances content (LC) Sum of impurities (40° C./75% RH, 6 M): ≤0.05%
Water content (40° C./75% RH, 6 M): 0.1%
Appearance (40° C./75% RH, 6 W): A1
Assay by potentiometry (40° C./75% RH, 6 W): 99.8%
Assay of Drug substance (LC) (40° C./75% RH, 6 W): 102.2%
Identification (40° C./75% RH, 6 W): I3
Related substances content (LC) Sum of impurities (40° C./75% RH, 6 W): ≤0.05%
Water content (40° C./75% RH, 6 W): 0.1%
Appearance (40° C./75% RH, T0): A1
Assay by potentiometry (40° C./75% RH, T0): 99.9%
Assay of Drug substance (LC) (40° C./75% RH, T0): 99.7%
Identification (40° C./75% RH, T0): I1
Related substances content (LC) Sum of impurities (40° C./75% RH, T0): ≤0.05%
Water content (40° C./75% RH, T0): 0.1%
Appearance (−18° C., 1 Y): A1
Water content (−18° C., 1 Y): <0.1%
Appearance (−18° C., 2 Y): A1
Water content (−18° C., 2 Y): <0.1%
Appearance (−18° C., 3 M): A1
Water content (−18° C., 3 M): 0.1%
Appearance (−18° C., 6 M): A1
Water content (−18° C., 6 M): 0.1%
Appearance (−18° C., 6 W): A1
Assay by potentiometry (−18° C., 6 W): 99.9%
Identification (−18° C., 6 W): I3
Water content (−18° C., 6 W): 0.1%
Appearance (−18° C., 9 M): A1
Assay by potentiometry (−18° C., 9 M): 99.7%
Water content (−18° C., 9 M): <0.1%
Appearance (−18° C., 18 M): A1
Water content (−18° C., 18 M): 0.1%
Appearance (−18° C., T0): A1
Assay by potentiometry (−18° C., T0): 99.9%
Assay of Drug substance (LC) (−18° C., T0): 99.7%
Identification (−18° C., T0): I1
Related substances content (LC) Sum of impurities (−18° C., T0): ≤0.05%
Water content (−18° C., T0): 0.1%

Source: patent US11504383B2, “Crystalline forms of a Ryanodine receptor modulator and uses thereof” (ARMGO Pharma, Inc., priority 2021, dated 2022)
